According to patent publication US20050203063A1, “Proteasome pathway inhibitors and related methods” (priority 2003, published 2005):
Like-named read-outs stand apart in the source and are kept apart here. Where a SMILES comes first, the peptide text is derived from it. The star is where a group is joined. Cbz = O=C(OCc1ccccc1)*

Legend:
[1] = system: cyclin-luciferase (cyc-luc) turnover, activated APC/C; test: cyc-luc turnover in mitotic Xenopus extracts (pre-treated with non-degradable cyclin B); assay type: biochemical
Protocol: (§1) FIG. 1. Functional classification of inhibitors. Compounds that scored in the initial screen were reacquired as dry powders and retested in Xenopus extracts in 4 assays at 200 μM concentration (32) as described (6). […] (A) Compounds and cyclin-luciferase were added to interphase extracts, which were then induced to enter mitosis by addition of non-degradable cyclin B. Percent inhibition of cyc-luc turnover by each compound is coded according to the grayscale shown at the bottom of the figure; specific values are available in Table 1. (B) Extracts were pre-treated with non-degradable cyclin B to allow entry into mitosis prior to addition of test compound and reporter protein. (C) Interphase extracts were treated by addition of recombinant Cdh1 to activate cyc-luc turnover. (D) Interphase extracts were treated with recombinant axin to induce turnover of β-catenin-luciferase.
(§2) The “Cmpd” column corresponds to the numbers used in FIG. 1; “Class” refers to the class of inhibitor described in FIG. 1 and the text. Columns A-D show percent inhibition in the four assays described in FIG. 1. (A) Interphase extracts (B) Mitotic extracts (C) Interphase extracts stimulated with Cdh1 (D) Degradation of a β-catenin reporter protein in interphase extracts stimulated with recombinant axin. […] “ID#” refers to the identification number of the inhibitor obtained from the NCI (prefaced by NSC) or Chembridge (prefaced by C).
(§3) Dry compounds were redissolved at 20 mM concentration in DMSO, or a 50:50 water:DMSO mixture in certain cases. These compounds were then diluted ten-fold in XB and mixed thoroughly. For the assay in FIG. 1A, chilled interphase extract was mixed with cyclin BΔ90 (10 μg/ml) and cyc-luc (0.1 μg/ml) in bulk and then 27 μl of extract was pipetted to each well of a chilled 384-well plate. Three microliters of each compound (diluted in XB) was then added to each well, and then compounds mixed thoroughly. Plates were warmed to room temperature. After 70 minutes, 5 μl aliquots were transferred to another plate, and then 30 μl of luciferin reagent was added to each well and luminescence measured. Percent inhibition was calculated as described above. The reported values represent the average of three independent measurments. For the assay in FIG. 1B, interphase extracts were treated with 10 μg/cyclin B 90 for 50 minutes at room temperature and then chilled on ice. Cyc-luc was then added, and then 27 μl of extract was pipetted to each well of a chilled 384-well plate. Three microliters of each compound (diluted in XB) was then added to each well, and then compounds mixed thoroughly. Plates were warmed to room temperature. After 60 minutes, 5 μl aliquots were transferred to another plate, and then 30 μl of luciferin reagent was added to each well and luminescence measured. For the assay in FIG. 1C, recombinant Cdh1 (0.1 μg/ml) and cyc-luc were added to chilled interphase extracts. Extracts were then pipetted and compounds added as above. Plates were warmed to room temperature and incubated for three hours, following which luminescence was measured as above. For the assay in FIG. 1D, chilled interphase extracts received recombinant axin and beta-catenin-luciferase reporter as described (8). Extracts were aliquoted to chilled plates and compounds distributed as described above. Plates were warmed to room temperature, incubated for three hours, and luminescence measured.

[2] = system: cyclin-luciferase (cyc-luc) turnover, APC/C activation; test: cyc-luc turnover in interphase Xenopus extracts induced to enter mitosis by non-degradable cyclin B; assay type: biochemical
Protocol: as §1, §2
Extracts were rapidly thawed and diluted to a final concentration of 75% in extract buffer (XB) just prior to assay (XB; 100 mM KCl, 0.1 mM CaCl2, 1 mM MgCl2, 10 mM potassium HEPES, pH 7.7, 50 mM sucrose). Extracts were kept on ice and supplemented with 1 mg/ml bovine ubiquitin (Sigma) unless otherwise stated. Cyc-luc expressed in reticulocyte lysate was diluted 1/200 for most assays. High-throughput screening utilized the bacterially expressed and purified cyclin-luc fusion protein, which was added to extracts at a final concentration of 0.1 μg/ml. To induce entrance into mitosis, cyclin BΔ90 protein was added to a final concentration of 10 μg/ml. For the dose response analysis, inhibitors were purchased from Calbiochem (San Diego, Calif.) and dissolved in DMSO as 10 mM stocks. Cyclin-luciferase and cyclin BΔ90 were mixed with interphase extract and placed on ice. Inhibitors were then added to extracts to yield a final DMSO concentration of 1%. 10 μl aliquots of extract were distributed into 384-well white Cliniplates (Labsystems), and cell cycle progression was initiated by warming the samples to room temperature. After 60 minutes, 30 μl of luciferin reagent (20 mM tricine pH 7.8, 470 μM D-Luciferin [Molecular Probes]), 270 μM Coenzyme A, 0.1 mM EDTA, 33 mM DTT, and 530 μM ATP) was added using a multidrop dispenser (Labsystems). Luminescence was measured on an Analyst plate reader (LJL Biosystems). The values for 3 replicates were averaged. For the dose response analysis, percent inhibition was calculated as 100*(T−M)/(I−M) where T equals the test value for the inhibitor, M equals the value in a mitotic extract lacking inhibitor, and I equals the value in an interphase extract. For certain experiments, methylated ubiquitin was added to interphase extracts at a concentration of 1 mg/ml in the presence or absence of added unmodified ubiquitin (1 mg/ml) used as competitor. Cyclin-luciferase and cyclin BΔ90 were then added. After 60 minutes, the reactions were stopped and analyzed as described above.
Dry compounds were redissolved at 20 mM concentration in DMSO, or a 50:50 water:DMSO mixture in certain cases. These compounds were then diluted ten-fold in XB and mixed thoroughly. For the assay in FIG. 1A, chilled interphase extract was mixed with cyclin BΔ90 (10 μg/ml) and cyc-luc (0.1 μg/ml) in bulk and then 27 μl of extract was pipetted to each well of a chilled 384-well plate.

[3] = system: β-catenin-luciferase turnover (substrate of the SCFβ-TRCP ubiquitin ligase); test: β-catenin-luciferase turnover in interphase Xenopus extracts stimulated with recombinant axin; assay type: biochemical
Protocol: as §1, §2, §3

[4] = system: Cdh1-stimulated cyc-luc proteolysis (APC/C); test: cyc-luc turnover in interphase Xenopus extracts stimulated with recombinant Cdh1; assay type: biochemical
Protocol: as §1, §2, §3

[5] = system: HEK-293 cells stably expressing GFP-AR; test: Protac-induced GFP-AR degradation in microinjected HEK-293 cells; assay type: cell-based; details: microinjection, 100 nM
Protocol: The results are representative of experiments performed on 3 separate days.
The effect of ubistatin A on protein degradation within intact mammalian cells was also evaluated (FIG. 4). Since the negative charge of the molecule was predicted to preclude efficient entry into the cell, compound was introduced by microinjection.
HEK-293 cells stably transfected with a plasmid that expresses GFP-AR were microinjected with 0.2 pl (5-10% of cell volume) of a 200 mM KCl solution containing 10 μM Protac and 50 mg/ml rhodamine dextran (MW 10,000 Da).

[6] = 200 μM compound, extracts in mitosis before addition of compound
[7] = 200 μM compound, added to interphase extracts then induced to enter mitosis, average of three measurements
[8] = 200 μM compound, negative values reflect stimulation of proteolysis

Compound	percent inhibition of cyc-luc turnover, (B) Mitotic extracts [1, 6]	percent inhibition of cyc-luc turnover, (A) Interphase extracts [2, 7]	percent inhibition, (D) Degradation of a β-catenin reporter protein in interphase extracts stimulated with recombinant axin ([3]; 200 μM compound)	percent inhibition of cyc-luc turnover, (C) Interphase extracts stimulated with Cdh1 [4, 8]	also measured
ON=c1[nH]cnc2[nH]cc(Br)c12 [Compound 40]	0%	42%	3%	−6%	
Nc1ncnc(Nc2ccc(S(N)(=O)=O)cc2)n1 [Compound 25]	3%	66%	0%	−6%	
CC[C@H](CO)Nc1nc(NCc2ccccc2)c2ncn(C(C)C)c2n1 [roscovitine, reference compound]					effect on cyc-luc proteolysis in mitotic extracts (in words) [1]: ineffective; effect on loss of cyc-luc activity / activation of latent APC/C activity (in words) [2]: blocked
CC[C@H](C)[C@H](NC(=O)[C@H]([C@@H](C)CC)N(C)C(C)=O)C(=O)N[C@H](C(=O)N[C@@H](CC(C)C)C(=O)[C@@]1(C)CO1)[C@@H](C)O [epoxomicin]					block of Protac-X induced loss of GFP-AR [5]: completely blocked
N#Cc1c(NN)n(C2OC(CO)C(O)C2O)c2ncnc(N)c12 (stereo not shown) [Compound 51]	0%	100%	30%	0%	
Nc1ncnc2c1ncn2C1OC2COP(=O)(O)OC2C1O (stereo not shown) [Compound 34]					percent inhibition of cyc-luc turnover, (B) Mitotic extracts ([1]; 200 µM): 0%; percent inhibition of cyc-luc turnover, (A) Interphase extracts ([2]; 200 µM): 100%; percent inhibition, (D) Degradation of a β-catenin reporter protein in interphase extracts stimulated with recombinant axin ([3]; 200 µM): 6%; percent inhibition of cyc-luc turnover, (C) Interphase extracts stimulated with Cdh1 ([4]; 200 µM): −8%
O[Si](c1ccccc1)(c1ccccc1)c1ccccc1.O[Si](c1ccccc1)(c1ccccc1)c1ccccc1.O[Si](c1ccccc1)(c1ccccc1)c1ccccc1.[O]=[V] [Compound 61]	8%	77%	2%	−8%	
O=S(=O)(O)c1ccc2c(/N=N/c3ccccc3)c(O)ccc2c1 [Compound 18]	4%	73%	0%	−7%	
O/N=C(/C=N/O)SCCSC(/C=N/O)=N/O [Compound 77]	4%	100%	0%	−12%	
Nc1ncnc2c1c(Cl)cn2[C@@H]1O[C@H](CO)[C@@H](O)[C@H]1O [Compound 39]	9%	100%	67%	−7%	
CC(C)C[C@@H](C=O)NC(=O)[C@H](CC(C)C)NC(=O)[C@H](CC(C)C)NC(=O)OCc1ccccc1 [MG132, reference compound] (Cbz-Leu-Leu-Leu-aldehyde)					effect on loss of cyc-luc activity / activation of latent APC/C activity (in words) ([2]; assay validation, inhibitor added to interphase extract before mitotic entry): partially inhibited
NC(=O)c1ncn(C2OC(CO)C(O)C2O)c1C(N)=O (stereo not shown) [Compound 82]	0%	100%	0%	0%	
O=c1[nH]cnc2c1ccc1[nH]ncc12 [Compound 67]	3%	53%	3%	−8%	
CC(=O)Nc1ncnc2[nH]ncc12 [Compound 54]	3%	54%	0%	−6%	
O=c1[nH]c(O)nc2cc3[nH]ncc3cc12 [Compound 62]	0%	84%	0%	−8%	
O=C1c2ccccc2C2=NNC3=C(S(=O)(=O)O)C=CC1C23 (stereo not shown) [Compound 10]	0%	33%	21%	−4%	
Nc1nc2c(c(=O)[nH]1)c1c(N)ncnc1n2C1OC(CO)C(O)C1O (stereo not shown) [Compound 57]	4%	100%	60%	0%	
O=C(NNC(=S)NC(=O)C12CC3CC(CC(C3)C1)C2)c1ccncc1 [Compound 13]	0%	75%	0%	−9%	
